BigSolDB 2.1

O=C(NC(Cc1cc(=O)[nH]c2ccccc12)C(=O)O)c1ccc(Cl)cc1 (stereo not given)
Conditions | solubility (mole fraction)
in PEG-400, 288.15 K | 0.00236
in PEG-400, 293.15 K | 0.0025
in PEG-400, 298.15 K | 0.00264
in PEG-400, 303.15 K | 0.00278
in PEG-400, 308.15 K | 0.00292

solubility (mole fraction)
Conditions | 288.15 K | 293.15 K | 298.15 K | 303.15 K | 308.15 K
in acetone | 1.01e-05 | 1.2e-05 | 1.43e-05 | 1.7e-05 | 2e-05
in acetonitrile | 8.25e-07 | 1.07e-06 | 1.38e-06 | 1.74e-06 | 2.2e-06
in ethanol | 7.58e-05 | 8.61e-05 | 9.68e-05 | 0.000109 | 0.000122
in ethyl acetate | 1.91e-06 | 2.21e-06 | 2.56e-06 | 2.94e-06 | 3.38e-06
in glycerin | 2.97e-06 | 3.45e-06 | 4.02e-06 | 4.63e-06 | 5.35e-06
in isopropanol | 3.82e-05 | 4.75e-05 | 5.83e-05 | 7.17e-05 | 8.79e-05
in methanol | 7.56e-05 | 8.55e-05 | 9.59e-05 | 0.000107 | 0.00012
in n-butanol | 5.47e-05 | 6.51e-05 | 7.73e-05 | 9.12e-05 | 0.000107
in n-propanol | 6.1e-05 | 7.1e-05 | 8.24e-05 | 9.55e-05 | 0.000109
in propylene glycol | 0.000204 | 0.000224 | 0.000246 | 0.000268 | 0.000291
in water | 5.17e-07 | 6.74e-07 | 8.69e-07 | 1.12e-06 | 1.43e-06
